The assay relates to neurons induced to differentiate from SCN1A gene deficient human iPS cells. Kind of assay: Test for measuring hyperexcitation suppression activity (spontaneous calcium oscillation frequency). It counts as cell-based. The following applies: Neuron; for IC50: SCN1A gene deficient human iPS cell-derived neurons, FLIPR Calcium 6, FDSS7000EX, read-out: IC50 (50% inhibitory concentration, frequency of spontaneous calcium oscillation). The text has this: Test for Measuring Hyperexcitation Suppression Activity Using Neurons Induced to Differentiate from SCN1A Gene Deficient Human iPS Cells
(1) Induction of Differentiation from Human iPS cells to Neurons
Half of the culture solution was exchanged once every 3 to 4 days.
(2) Fluorescent Calcium Probe Treatment, Addition of Compound, and Evaluation of Intracellular Calcium Concentration
Half of the culture solution was removed on day 60 from induction of differentiation or thereafter. A medium for measurement comprising a fluorescent calcium probe (Molecular Device, product name: FLIPR Calcium 6 Assay Bulk Kit, cat #R8191) was added at an amount equal to the remaining medium. The culture was left standing for 30 minutes and subjected to measurement.
The test compounds were serially diluted with a dimethyl sulfoxide (DMSO) solution so that the final concentration would be 0.1 to 100 μM to prepare a concentrate with a concentration that is 6-fold of the final concentration.
The intensity of fluorescence of a calcium probe was measured over time with FDSS7000EX (Hamamatsu Photonics) to evaluate the change in intracellular calcium concentrations. First, the intensity of fluorescence was measured for 2 minutes. The compound solutions were then added using FDSS7000EX for an additional 8 minute measurement of fluorescence intensity. The frequency of spontaneous calcium oscillation was quantified as an indicator of nerve excitation. With the frequency for 2 minutes before the addition of the compound solutions as 100%, the ratio of frequency for the last 2 minutes after addition of the compound solutions was calculated.

The mark [1] stands for this setting: Homo sapiens, read-out: inhibition rate.

Drawing on patent US12404268B2, “2-heteroaryl aminoquinazolinone derivative” (Sumitomo Pharma Co., Ltd., priority 2020, dated 2025), this text covers inhibition and IC50 for 65 compounds.

Regarding `Cc1ccncc1Nc1nc2ccc(F)cc2c(=O)n1-c1ccccc1` [Example 47], the inhibition at 10 µM under setting [1] worked out at 89%.
On to `O=c1c2cc(F)ccc2nc(Nc2cccnc2)n1-c1cncc(F)c1` [Example 184], for which the inhibition at 100 µM under setting [1] came to 54%.
As to `CN1CC[C@@H](n2c(Nc3cccnc3)nc3ccccc3c2=O)C1` [Example 96], the inhibition at 100 µM under setting [1] turned out to be 100%.
As for `COCc1nccc(Nc2nc3ccc(F)cc3c(=O)n2-c2ccccc2)n1` [Example 37], the inhibition at 10 µM under setting [1] is 68%.
For `O=c1c2cc(F)ccc2nc(Nc2cccnc2)n1C12CCN(CC1)CC2` [Example 72], the inhibition at 10 µM under setting [1] turned out to be 100%.
On to `C[C@]1(N)CC[C@@H](n2c(Nc3cccnc3)nc3ccccc3c2=O)CC1` [Example 74], for which the inhibition at 10 µM under setting [1] turned out to be 100%.
Consider `O=c1c2cc(F)ncc2nc(Nc2cccnc2)n1-c1ccccc1` [Example 190], for which the IC50 was over 10 µM.
As for `Cc1nccc(Nc2nc3ccc(Cl)cc3c(=O)n2-c2ccccc2)n1` [Example 36], under setting [1], the inhibition at 10 µM worked out at 32%.
With `O=c1c2ccccc2nc(Nc2ccc3ncoc3c2)n1-c1ccccc1` [Example 98], under setting [1], the inhibition at 1 µM is 51%.
As to `CN(C)CCn1c(Nc2cccnc2)nc2ccc(F)cc2c1=O` [Example 207], the IC50 was over 10 µM.
On to `O=c1c2cc(F)ccc2nc(Nc2cccnc2)n1-c1ccc(F)cc1` [Example 124], for which, under setting [1], the inhibition at 1 µM worked out at 32%.
For the compound `O=c1c2cnccc2nc(Nc2cccnc2)n1-c1ccccc1` [Example 189], the IC50 was over 10 µM.
Turning to `O=c1c2cc(F)ccc2nc(Nc2cnoc2)n1-c1ccccc1` [Example 172], the inhibition at 100 µM under setting [1] is 100%.
Regarding `O=c1c2cc(F)ccc2nc(Nc2cccnn2)n1-c1ccccc1` [Example 18], the IC50 is 0.8 µM.
Turning to `COc1cnccc1Nc1nc2ccc(F)cc2c(=O)n1-c1ccccc1` [Example 144], the inhibition at 100 µM under setting [1] came out at 16%.
Consider `O=c1c2ccccc2nc(Nc2cccc3cncn23)n1-c1ccccc1` [Example 63], for which the inhibition at 1 µM under setting [1] came to 23%.
With `CN1CC[C@H](n2c(Nc3cccnc3)nc3ccccc3c2=O)C1` [Example 77], under setting [1], the inhibition at 10 µM is 26%.
`Cc1cc2c(=O)n(-c3ccccc3)c(Nc3cccnc3)nc2cn1` [Example 194]: the IC50 is over 10 µM.
As to `Cc1ccccc1-n1c(Nc2cccnc2)nc2ccc(F)cc2c1=O` [Example 107, 6-fluoro-2-(pyridin-3-ylamino)-3-(o-tolyl)quinazolin-4(3H)-one], the inhibition at 0.1 µM (Homo sapiens, @0.1 μM, read-out: inhibition rate) is 89%.
As for `CS(=O)(=O)Nc1ccc2nc(Nc3cccnc3)n(-c3ccccc3)c(=O)c2c1` [Example 211], the IC50 is over 100 µM.
In the case of `O=c1c2cc(Cl)ccc2nc(Nc2cccnc2)n1-c1ccccc1F` [Example 51, 6-chloro-3-(2-fluorophenyl)-2-(pyridin-3-ylamino)quinazolin-4(3H)-one], under setting [1], the inhibition at 1 µM was 100%.
Consider `Cn1ccc(Nc2nc3ccc(F)cc3c(=O)n2-c2ccccc2)c1` [Example 182], for which the inhibition at 10 µM under setting [1] is 72%.
Turning to `O=c1c2cc(Cl)ccc2nc(Nc2nncs2)n1-c1ccccc1` [Example 229], the inhibition at 10 µM under setting [1] worked out at 5%.
For `O=c1c2ccccc2nc(Nc2cccc3ocnc23)n1-c1ccccc1` [Example 99], the inhibition at 10 µM under setting [1] amounted to 94%.
For `Cn1nccc1-n1c(Nc2cccnc2)nc2ccc(F)cc2c1=O` [Example 150], the inhibition at 1 µM under setting [1] was found to be 26%.
`O=c1c2cc(F)ccc2nc(Nc2cccnc2)n1CCN1CCCC1` [Example 159]: under setting [1], the inhibition at 10 µM came out at 56%.
As for `Cc1ccnc(Nc2nc3ccc(F)cc3c(=O)n2-c2ccccc2)c1` [Example 125], the inhibition at 1 µM under setting [1] was 29%.
Turning to `O=c1c2cc(Cl)ccc2nc(Nc2ccc3nccnc3c2)n1-c1ccccc1` [Example 5], the IC50 is 6.1 µM.
Consider `O=c1c2cc(F)ccc2nc(Nc2cccnc2)n1C1(c2ccccc2)CNC1` [Example 175], for which the inhibition at 10 µM under setting [1] worked out at 25%.
Take `C[C@@H](c1ccccc1)n1c(Nc2cccnc2)nc2ccc(F)cc2c1=O` [Example 163]: the inhibition at 1 µM under setting [1] worked out at 70%.
For `O=c1c2cc(F)ccc2nc(Nc2cccnc2)n1CCO` [Example 173], the inhibition at 100 µM under setting [1] was determined as 6%.
Consider `Cc1ccc(-n2c(Nc3cccnc3)nc3ccc(C#N)cc3c2=O)c(Cl)c1` [Example 103], for which the inhibition at 1 µM under setting [1] came out at 84%.
With `CN(C)c1ccc2nc(Nc3cccnc3)n(-c3ccccc3)c(=O)c2c1` [Example 212], the IC50 is over 10 µM.
On to `COc1ccc2c(=O)n(-c3ccccc3)c(Nc3cccnc3)nc2c1` [Example 225], for which the IC50 was over 100 µM.
In the case of `NCCn1c(Nc2cccnc2)nc2ccc(F)cc2c1=O` [Example 179], the inhibition at 10 µM under setting [1] was determined as 98%.
As for `Cc1ccccc1-n1c(Nc2cccnc2)nc2c(F)cccc2c1=O` [Example 122], under setting [1], the inhibition at 1 µM was 61%.
The same measure, in the same setting: then `N#Cc1ccc2nc(Nc3cccnc3)n(-c3ccccc3F)c(=O)c2c1` [Example 110], with 66%; and `O=c1c2cc(F)ccc2nc(Nc2cc(F)ccn2)n1-c1ccccc1` [Example 127, 6-fluoro-2-((4-fluoropyridin-2-yl)amino)-3-phenylquinazolin-4(3H)-one], with 96%.
In the case of `NC(=O)c1ccc(Nc2nc3ccc(Cl)cc3c(=O)n2-c2ccccc2)nc1` [Example 221], the IC50 was over 10 µM.
On to `O=c1c2cc(F)ccc2nc(Nc2ccncn2)n1-c1ccccc1` [Example 20], for which the IC50 is 4.9 µM.
With `CN1CC[C@@H](n2c(Nc3cccnc3)nc3ccc(F)cc3c2=O)C1` [Example 97], under setting [1], the inhibition at 100 µM came out at 100%.
`CN1CCC[C@@H](n2c(Nc3cccnc3)nc3ccccc3c2=O)C1` [Example 75]: the inhibition at 10 µM under setting [1] worked out at 100%.
For `N#Cc1cncc(Nc2nc3ccc(Cl)cc3c(=O)n2-c2ccccc2)c1` [Example 41, 5-((6-chloro-4-oxo-3-phenyl-3,4-dihydroquinazolin-2-yl)amino)nicotinonitrile], the inhibition at 1 µM under setting [1] is 95%.
Consider `O=c1c2cc(F)ccc2nc(Nc2cncc(Cl)c2)n1-c1ccccc1` [Example 45, 2-((5-chloropyridin-3-yl)amino)-6-fluoro-3-phenylquinazolin-4(3H)-one], for which the inhibition at 1 µM under setting [1] is 100%.
With `O=c1c2cc(F)ccc2nc(Nc2ccncc2)n1-c1ccccc1` [Example 131], the inhibition at 10 µM under setting [1] was determined as 100%.
Same read-out and setting: then `O=c1c2cc(F)ccc2nc(Nc2ccsc2)n1-c1ccccc1` [Example 169], with 100%.
Turning to `Cc1ccc(-n2c(Nc3cccnc3)nc3ccc(F)cc3c2=O)cc1` [Example 105, 6-fluoro-2-(pyridin-3-ylamino)-3-(p-tolyl)quinazolin-4(3H)-one], the inhibition at 1 µM under setting [1] is 100%.
With `O=c1c2cc(F)ccc2nc(Nc2cccnc2)n1[C@H]1CCOC1` [Example 199], the IC50 was over 10 µM.
On to `COc1ccc(Nc2nc3ccc(Cl)cc3c(=O)n2-c2ccccc2)cn1` [Example 22], for which the inhibition at 10 µM under setting [1] is 70%.
In the case of `C[C@H]1CC[C@H](n2c(Nc3cccnc3)nc3ccc(F)cc3c2=O)CC1` [Example 201], the IC50 is over 10 µM.
Regarding `O=c1c2cc(F)ccc2nc(Nc2cccnc2)n1CC1CCCCC1` [Example 155], the inhibition at 10 µM under setting [1] is 81%.
As to `O=c1c2cc(F)ccc2nc(Nc2cccnc2)n1-c1ccccc1Cl` [Example 145, 3-(2-chlorophenyl)-6-fluoro-2-(pyridin-3-ylamino)quinazolin-4(3H)-one], under setting [1], the inhibition at 1 µM was determined as 100%.
In the case of `O=c1c2cc(Cl)ccc2nc(Nc2cn[nH]c2)n1-c1ccccc1` [Example 217], the IC50 is over 10 µM.
Turning to `O=c1c2ccccc2nc(Nc2cccnc2)n1C1CCC(F)(F)CC1` [Example 58], the inhibition at 10 µM under setting [1] was determined as 100%.
`COCCn1c(Nc2cccnc2)nc2ccc(F)cc2c1=O` [Example 203]: the IC50 was over 10 µM.
Regarding `CN1CCC[C@H](n2c(Nc3cccnc3)nc3ccc(F)cc3c2=O)C1` [Example 81], under setting [1], the inhibition at 10 µM was determined as 35%.
For the compound `O=c1c2ccccc2nc(Nc2ccc3cncn3c2)n1-c1ccccc1` [Example 68], the inhibition at 10 µM under setting [1] was found to be 100%.
On to `O=c1c2cc(F)ccc2nc(Nc2cccnc2)n1C1CCCCC1` [Example 61], for which, under setting [1], the inhibition at 10 µM stood at 79%.
With `O=c1c2cc(Cl)ccc2nc(Nc2cccnc2)n1-c1ccccc1Cl` [Example 15, 6-chloro-3-(2-chlorophenyl)-2-(pyridin-3-ylamino)quinazolin-4(3H)-one], the inhibition at 1 µM under setting [1] turned out to be 99%.
Turning to `COCc1nccc(Nc2nc3ccc(Cl)cc3c(=O)n2-c2ccccc2)n1` [Example 21], the inhibition at 10 µM under setting [1] came to 27%.
`C[C@]1(N)CC[C@H](n2c(Nc3cccnc3)nc3ccc(F)cc3c2=O)CC1` [Example 84]: the inhibition at 10 µM under setting [1] turned out to be 96%.
`COc1cc2nc(Nc3cccc4ncccc34)n(C)c(=O)c2cc1OC` [Example 220]: the IC50 was over 10 µM.
For the compound `O=c1c2cccnc2nc(Nc2cccnc2)n1-c1ccccc1` [Example 152], the inhibition at 10 µM under setting [1] worked out at 15%.
`CN(C)c1cncc(Nc2nc3ccc(F)cc3c(=O)n2-c2ccccc2)c1` [Example 216]: the IC50 is over 100 µM.
With `Cn1cnc2c(Nc3nc4ccccc4c(=O)n3-c3ccccc3)cccc21` [Example 93], the inhibition at 10 µM under setting [1] was determined as 53%.
